Assay [1] deals with T1, heparanase (Homo sapiens, UniProt Q9Y251).
T1 sequence (Q9Y251 158-543 limits assumed): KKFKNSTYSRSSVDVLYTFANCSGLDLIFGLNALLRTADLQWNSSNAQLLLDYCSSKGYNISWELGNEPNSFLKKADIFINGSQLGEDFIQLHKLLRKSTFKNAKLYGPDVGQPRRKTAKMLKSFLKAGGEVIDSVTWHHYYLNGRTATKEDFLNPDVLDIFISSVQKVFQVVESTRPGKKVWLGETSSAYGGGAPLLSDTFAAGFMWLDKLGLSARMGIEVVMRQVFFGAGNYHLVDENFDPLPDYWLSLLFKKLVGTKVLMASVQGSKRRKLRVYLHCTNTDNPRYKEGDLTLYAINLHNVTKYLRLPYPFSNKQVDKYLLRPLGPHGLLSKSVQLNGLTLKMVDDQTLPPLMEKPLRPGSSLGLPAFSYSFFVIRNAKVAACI
T1 sequence (Q9Y251 36-109 limits assumed): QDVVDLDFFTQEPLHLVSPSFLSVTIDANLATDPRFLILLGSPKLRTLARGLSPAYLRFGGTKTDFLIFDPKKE
The assay is described as follows: Fondaparinux colorimetric heparanase assay. It is filed as biochemical. The following applies: for inhibition at 3.3 µM: 3.3 μM compound; for inhibition at 3.3 µM / inhibition at 10 µM / inhibition at 33 µM: heparanase 5 nM; for inhibition at 10 µM: 10 μM compound; for inhibition at 33 µM: 33 μM compound. The source says:
With the synthetic glycopeptide and the corresponding peptide and glycan in hand, we began to probe the impacts of glycan and peptide on biological functions of the glycopeptide. The endoglycosidase heparanase is an important enzyme for HS metabolism, which can cleave HS polysaccharide chains at the cell surface or in the extracellular matrix.[63] Heparanase activities are important for a variety of biological processes, including tumor metastasis and cell proliferation.[64] […]
General procedure for heparanase assays
Fondaparinux colorimetric heparanase assays were carried out in 96 well microplates (NEST Scientific 96 Well Cell Culture Plate, 701002) pre-treated with a solution of 4% BSA in phosphate-buffered saline containing 0.05% Tween 20 (PBST) for 2 h at 37 °C. A ssay solutions (100 ul) contained sodium acetate buffer (40 mM, pH 5.0) and fondaparinux ([…], MedChemExpress), heparanase (5 nM) and varying concentrations of compounds of interests or heparin. The mixture was kept at 37 °C for 20 h, which was followed by addition of a solution of WST-1 (100 μL of 1.69 mM WST-1 in 0.1 M NaOH) and incubation at 60 °C for 1 h after which the absorbance at 584 nm was measured (Fluostar Optima plate reader, BMG Labtech). […]

Assay [2] addresses CCL-13 (Homo sapiens, UniProt Q99616). The assay is described as follows: BLI binding assay, biotinylated compounds on streptavidin biosensors, CCL-13. Details: key to K D CCL-13: Inactive denotes a KD value greater than 400 μM. The following applies: for Kd: Table 2, read-out: K D CCL-13. The procedure:
(§1) Cytokines and growth factors are important proteins modulating cellular functions, many of which are known to interact with HS.[1,8,34,67] To probe the impacts of the glycan and the core peptide, the binding of glycopeptide 1, pentasaccharide 30, and peptide 31 to several representative growth factors and cytokines including fibroblast growth factor 2 (FGF-2), interleukin 8 (IL-8) and chemokine (C–C motif ligand 13 (CCL-13)) respectively was tested using the biolayer interferometry (BLI). The biotinylated glycopeptide 1, pentasaccharide 30, and peptide 31 were immobilized on streptavidin coated biosensors, and their dissociation constants (KD) with the proteins were measured (Table 2). […]
(§2) General procedure for biotinylation
(§3) To a solution of free amine compounds in DMSO/H 2O (1/1, 0.5 ml) was added […]
(§4) The reaction was stirred at room temperature for 5 hours. Then the mixture was loaded onto a G-15 Sephadex column for purification. […] General procedure for BLI binding assay
(§5) The binding assay was performed on the Octet K2 System (Pall ForteBio). The biotinylated […]
(§6) compounds were absorbed to streptavidin (SA) sensor for 2 min. The sensor was then balanced in the assay buffer (PBS containing 0.005% P20) and dipped into protein solution in assay buffer at different concentration. After 5 min of association, the sensor was brought back to the previous assay

In assay [3] the target is FGF-2 (Homo sapiens, UniProt P09038). Description: BLI binding assay, biotinylated compounds on streptavidin biosensors, FGF-2. As for the experimental part: as §1, §2
Chain of FGF-2 (P09038 143-288, species assumed): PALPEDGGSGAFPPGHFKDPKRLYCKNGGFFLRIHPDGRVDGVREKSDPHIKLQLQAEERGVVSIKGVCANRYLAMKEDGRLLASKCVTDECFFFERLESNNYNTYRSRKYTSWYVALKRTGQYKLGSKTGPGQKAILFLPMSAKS
To a solution of free amine compounds in DMSO/H 2O (1/1, 0.5 ml) was added sulfo-NHS-LC-Biotin (5 equiv) and DIPEA (pH ~ 8.5). The reaction was stirred at room temperature for 5 hours. Then the mixture was loaded onto a G-15 Sephadex column for purification. […] General procedure for BLI binding assay
as §5
compounds were absorbed to streptavidin (SA) sensor for 2 min. The sensor was then balanced in the assay buffer (PBS containing 0.005% P20) and dipped into protein solution in assay buffer at different concentration. After 5 min of association, the sensor was brought back to the previous assay buffer for a 5 min dissociation step. At the end of the assay, the sensor was regenerated in 2 M NaCl to remove the bound protein. Each measurement was repeated 3 times on the same sensor. The control assay was done with another sensor loaded with saturated biotin solution. […]
MD trajectories were generated from the protein system without any ligand to relax the structure and minimize the pocket restrictions caused by the present ligand in the structure.
The geometries of compounds 2, 28 and 29 were optimized using the Gaussian 16 program package. The optimizations were performed using the AM1 method.1 The obtained Mulliken charges were used with the antechamber module of Amber 16 in the generation of parameters. The systems were prepared using the Leap module of AmberTools162 under the AMBER ff14SB and GAFF force fields. Each enzyme complex was solvated in a 14 Å cube of TIP4P-Ew water beyond the solute and 100 mM sodium chloride. The systems were relaxed under NVT conditions over six minimization procedures with decreasing restraints on the protein of 500.0, 200.0, 20.0, 10.0, 5.0 kcal/(mol Å2) to no restraints. The systems were then heated to 300 K over 30 ps. Atomistic molecular dynamics simulations were performed for 30 ns at 300 K and 1 atm using AMBER 16. The SHAKE algorithm constrained bonds involving hydrogen. 3 The trajectories were produced using Langevin dynamics and the pressure of the system was regulated with isotropic position scaling. Long -range electrostatic effects were modeled using the particle-mesh Ewald method with a 10 Å cutoff.
The produced trajectories were analyzed using AMBER 16 and visualized with MOE and the UCSF Chimera package. Free energy of binding was calculated for every picosecond using the Poisson Boltzmann model form the MMPBSA.py module of AmberTools and AMBER 16. The relative free energy trends between models were compared so solute entropy was neglected.
Following the general procedure for solid-phase peptide synthesis, peptide 29 was obtained in 52% […]
RP-HPLC retention time, tR = 24.4 min.
Following the general procedure for biotinylation, peptide 31 was obtained from 12-mer peptide 29 in 56% yield. The overall yield based on resin loading is 29%. HRMS: C65H103N15O28S [M - 2H]2- […]
Figure S1: Binding of synthetic compounds 1, 31 and 30 to protein FGF2 as measured by BLI (a-c respectively). The biotinylated compounds (2 μM ) were immobilized on streptavidin coated biosensors, and FGF2 was captured on biosensors with six concentrations at 291 nM, 145 nM, […], 39 nM, 20 nM, 10 nM. Fitting curves were shown in red lines. […]
On the technique in general: In BLI a coated tip is dipped into the sample, and binding shifts an interference pattern.

The target in assay [4] is T2, IL-8 (Homo sapiens, UniProt P10145).
T2 sequence (P10145 21-99): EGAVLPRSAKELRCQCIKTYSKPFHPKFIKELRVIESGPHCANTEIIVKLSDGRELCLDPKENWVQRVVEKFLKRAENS
Description: BLI binding assay, biotinylated compounds on streptavidin biosensors, IL-8. The following applies: Table 2, read-out: K D IL-8. The procedure: as §1, §2, §3, §4, §5, §6

Where [5] appears, read: BLI, Table 2, read-out: K D FGF2.
Where [6] appears, read: Table S2, KD values from BLI measurements, read-out: Experimental KD.

As a reminder, the inhibition is how much of the control response was suppressed.

Read-outs that look alike come from different tables or passages of the source. Residues, ends and D or L forms follow the SMILES beside them. *: point of attachment. X1 = O=C(O)[C@H]1O[C@@H](O[C@H]2[C@@H](O)[C@@H](CO)O[C@@H](O[C@H]3[C@@H](O)[C@@H](CO)O[C@@H](O[C@@H]4CO[C@@H](*)[C@H](O)[C@H]4O)[C@@H]3O)[C@@H]2O)[C@H](O)[C@@H](O)[C@@H]1O[C@H]1O[C@H](COS(=O)(=O)O)[C@@H](O)[C@H](O)[C@H]1NS(=O)(=O)O; Biotin = O=C1N[C@H]2[C@H](CS[C@H]2CCCCC(=O)*)N1; Ahx = NCCCCCC(=O)O

Chain of CCL-13 (Q99616 17-98, species assumed): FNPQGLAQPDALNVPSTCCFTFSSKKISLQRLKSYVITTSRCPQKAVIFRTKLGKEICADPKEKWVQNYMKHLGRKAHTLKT

Turning to `CC(C)C[C@H](NC(=O)CCCCCNC(=O)CCCC[C@@H]1SC[C@@H]2NC(=O)N[C@@H]21)C(=O)N[C@@H](CO)C(=O)NCC(=O)N[C@@H](CO[C@@H]1OC[C@@H](O[C@@H]2O[C@H](CO)[C@H](O)[C@H](O[C@@H]3O[C@H](CO)[C@H](O)[C@H](O[C@@H]4O[C@H](C(=O)O)[C@@H](O[C@H]5O[C@H](COS(=O)(=O)O)[C@@H](O)[C@H](O)[C@H]5NS(=O)(=O)O)[C@H](O)[C@H]4O)[C@H]3O)[C@H]2O)[C@H](O)[C@H]1O)C(=O)NCC(=O)N[C@@H](CC(=O)O)C(=O)N[C@@H](CC(C)C)C(=O)N[C@@H](CC(=O)O)C(=O)N[C@@H](CC(=O)O)C(=O)N[C@@H](CC(C)C)C(=O)N[C@@H](CCC(=O)O)C(=O)N[C@@H](CC(=O)O)C(=O)O` [Compound 1] ({Biotin-Ahx}-LSGS(X1)GDLDDLED-OH), in assay [1], the inhibition at 3.3 µM is below 0%, the inhibition at 10 µM was below 0%, the inhibition at 33 µM is below 0% and the “inhibition of heparanase at concentrations up to 100 μM” value is “neither peptide 31 nor glycopeptide 1 were able to inhibit heparanase”. Also, in assay [2], the Kd came out at 0.498 µM. Further, the Kd in assay [3] (setting [5]) was 0.005 µM. The “FGF-2 binding, fold higher than pentasaccharide 30 and peptide 31” value in assay [3] (ratio of KD values) was “about 3 fold”. In assay [4], the Kd came out at 0.028 µM.

Turning to `NCCCO[C@@H]1OC[C@@H](O[C@@H]2O[C@H](CO)[C@H](O)[C@H](O[C@@H]3O[C@H](CO)[C@H](O)[C@H](O[C@@H]4O[C@H](C(=O)O)[C@@H](O[C@H]5O[C@H](COS(=O)(=O)O)[C@@H](O)[C@H](O)[C@H]5NS(=O)(=O)O)[C@H](O)[C@H]4O)[C@H]3O)[C@H]2O)[C@H](O)[C@H]1O` [Compound 28], in assay [3] (setting [6]), the Kd stood at 0.0145 µM.

As for `CC(C)C[C@H](NC(=O)[C@H](CC(=O)O)NC(=O)CNC(=O)[C@H](CO)NC(=O)CNC(=O)[C@H](CO)NC(=O)[C@@H](N)CC(C)C)C(=O)N[C@@H](CC(=O)O)C(=O)N[C@@H](CC(=O)O)C(=O)N[C@@H](CC(C)C)C(=O)N[C@@H](CCC(=O)O)C(=O)N[C@@H](CC(=O)O)C(=O)O` [Compound 29] (H-LSGSGDLDDLED-OH), in assay [3] (setting [6]), the Kd amounted to 0.017 µM.

For `O=C(CCCCC1SCC2NC(=O)NC21)NCCCCCC(=O)NCCCOC1OCC(OC2OC(CO)C(O)C(OC3OC(CO)C(O)C(OC4OC(C(=O)O)C(OC5OC(COS(=O)(=O)O)C(O)C(O)C5NS(=O)(=O)O)C(O)C4O)C3O)C2O)C(O)C1O` (stereo not drawn) [Compound 30], in assay [1], the inhibition at 3.3 µM is below 0%, the inhibition at 10 µM turned out to be 32% and at 33 µM the inhibition was 61%. The “KD with CCL-13” value in assay [2] was “did not exhibit much binding”. The “K D CCL-13” value in assay [2] (Table 2) is “Inactive”. Also, in assay [3] (setting [5]), the Kd worked out at 0.0145 µM. For the same compound, in assay [4], the Kd was 0.039 µM.

`CC(C)C[C@H](NC(=O)CCCCCNC(=O)CCCC[C@@H]1SC[C@@H]2NC(=O)N[C@@H]21)C(=O)N[C@@H](CO)C(=O)NCC(=O)N[C@@H](CO)C(=O)NCC(=O)N[C@@H](CC(=O)O)C(=O)N[C@@H](CC(C)C)C(=O)N[C@@H](CC(=O)O)C(=O)N[C@@H](CC(=O)O)C(=O)N[C@@H](CC(C)C)C(=O)N[C@@H](CCC(=O)O)C(=O)N[C@@H](CC(=O)O)C(=O)O` [Compound 31] ({Biotin-Ahx}-LSGSGDLDDLED-OH; N-terminus and C-terminus assumed): in assay [1], the inhibition at 3.3 µM was below 0%, the inhibition at 10 µM is below 0%, the inhibition at 33 µM was below 0% and the “inhibition of heparanase at concentrations up to 100 μM” value was “neither peptide 31 nor glycopeptide 1 were able to inhibit heparanase”. The Kd in assay [2] turned out to be 0.092 µM. Also, the Kd in assay [3] (setting [5]) is 0.017 µM. The Kd in assay [4] was 0.075 µM.

The values above are taken from publication PMC8159385, “Chemical synthesis of human syndecan-4 glycopeptide bearing O-, N-sulfation and multiple aspartic acids for probing impacts of the glycan chain and the core peptide on biological functions” (Chemical Science, 2020).
